Experimental data reported in patent publication US8410112B2, “Compounds useful as inhibitors of ATR kinase” (Vertex Pharmaceuticals Incorporated, priority 2008, dated 2013).

Biological target: T1, full-length ATR (Homo sapiens, UniProt Q13535)
T1 construct: in the presence of 5 nM full-length ATR
Assay: ATR Inhibition Assay (radioactive-phosphate incorporation)
Format: biochemical
Settings: Ki(app); 5 nM full-length ATR, 10 μM ATP, 800 μM target peptide, 25° C.
Method in brief: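 Buffer was 50 mM Tris/HCl pH 7.5, 10 mM MgCl2, 1 mM DTT, with 5 nM enzyme, 10 μM [γ-33P]ATP and 800 μM target peptide at 25 °C. Compound was pre-incubated 10 min before ATP start, and the reaction was stopped after 24 h. Phosphocellulose filter capture; Ki(app) came from non-linear regression of background-corrected initial rates.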

T1 sequence (Q13535 whole entry): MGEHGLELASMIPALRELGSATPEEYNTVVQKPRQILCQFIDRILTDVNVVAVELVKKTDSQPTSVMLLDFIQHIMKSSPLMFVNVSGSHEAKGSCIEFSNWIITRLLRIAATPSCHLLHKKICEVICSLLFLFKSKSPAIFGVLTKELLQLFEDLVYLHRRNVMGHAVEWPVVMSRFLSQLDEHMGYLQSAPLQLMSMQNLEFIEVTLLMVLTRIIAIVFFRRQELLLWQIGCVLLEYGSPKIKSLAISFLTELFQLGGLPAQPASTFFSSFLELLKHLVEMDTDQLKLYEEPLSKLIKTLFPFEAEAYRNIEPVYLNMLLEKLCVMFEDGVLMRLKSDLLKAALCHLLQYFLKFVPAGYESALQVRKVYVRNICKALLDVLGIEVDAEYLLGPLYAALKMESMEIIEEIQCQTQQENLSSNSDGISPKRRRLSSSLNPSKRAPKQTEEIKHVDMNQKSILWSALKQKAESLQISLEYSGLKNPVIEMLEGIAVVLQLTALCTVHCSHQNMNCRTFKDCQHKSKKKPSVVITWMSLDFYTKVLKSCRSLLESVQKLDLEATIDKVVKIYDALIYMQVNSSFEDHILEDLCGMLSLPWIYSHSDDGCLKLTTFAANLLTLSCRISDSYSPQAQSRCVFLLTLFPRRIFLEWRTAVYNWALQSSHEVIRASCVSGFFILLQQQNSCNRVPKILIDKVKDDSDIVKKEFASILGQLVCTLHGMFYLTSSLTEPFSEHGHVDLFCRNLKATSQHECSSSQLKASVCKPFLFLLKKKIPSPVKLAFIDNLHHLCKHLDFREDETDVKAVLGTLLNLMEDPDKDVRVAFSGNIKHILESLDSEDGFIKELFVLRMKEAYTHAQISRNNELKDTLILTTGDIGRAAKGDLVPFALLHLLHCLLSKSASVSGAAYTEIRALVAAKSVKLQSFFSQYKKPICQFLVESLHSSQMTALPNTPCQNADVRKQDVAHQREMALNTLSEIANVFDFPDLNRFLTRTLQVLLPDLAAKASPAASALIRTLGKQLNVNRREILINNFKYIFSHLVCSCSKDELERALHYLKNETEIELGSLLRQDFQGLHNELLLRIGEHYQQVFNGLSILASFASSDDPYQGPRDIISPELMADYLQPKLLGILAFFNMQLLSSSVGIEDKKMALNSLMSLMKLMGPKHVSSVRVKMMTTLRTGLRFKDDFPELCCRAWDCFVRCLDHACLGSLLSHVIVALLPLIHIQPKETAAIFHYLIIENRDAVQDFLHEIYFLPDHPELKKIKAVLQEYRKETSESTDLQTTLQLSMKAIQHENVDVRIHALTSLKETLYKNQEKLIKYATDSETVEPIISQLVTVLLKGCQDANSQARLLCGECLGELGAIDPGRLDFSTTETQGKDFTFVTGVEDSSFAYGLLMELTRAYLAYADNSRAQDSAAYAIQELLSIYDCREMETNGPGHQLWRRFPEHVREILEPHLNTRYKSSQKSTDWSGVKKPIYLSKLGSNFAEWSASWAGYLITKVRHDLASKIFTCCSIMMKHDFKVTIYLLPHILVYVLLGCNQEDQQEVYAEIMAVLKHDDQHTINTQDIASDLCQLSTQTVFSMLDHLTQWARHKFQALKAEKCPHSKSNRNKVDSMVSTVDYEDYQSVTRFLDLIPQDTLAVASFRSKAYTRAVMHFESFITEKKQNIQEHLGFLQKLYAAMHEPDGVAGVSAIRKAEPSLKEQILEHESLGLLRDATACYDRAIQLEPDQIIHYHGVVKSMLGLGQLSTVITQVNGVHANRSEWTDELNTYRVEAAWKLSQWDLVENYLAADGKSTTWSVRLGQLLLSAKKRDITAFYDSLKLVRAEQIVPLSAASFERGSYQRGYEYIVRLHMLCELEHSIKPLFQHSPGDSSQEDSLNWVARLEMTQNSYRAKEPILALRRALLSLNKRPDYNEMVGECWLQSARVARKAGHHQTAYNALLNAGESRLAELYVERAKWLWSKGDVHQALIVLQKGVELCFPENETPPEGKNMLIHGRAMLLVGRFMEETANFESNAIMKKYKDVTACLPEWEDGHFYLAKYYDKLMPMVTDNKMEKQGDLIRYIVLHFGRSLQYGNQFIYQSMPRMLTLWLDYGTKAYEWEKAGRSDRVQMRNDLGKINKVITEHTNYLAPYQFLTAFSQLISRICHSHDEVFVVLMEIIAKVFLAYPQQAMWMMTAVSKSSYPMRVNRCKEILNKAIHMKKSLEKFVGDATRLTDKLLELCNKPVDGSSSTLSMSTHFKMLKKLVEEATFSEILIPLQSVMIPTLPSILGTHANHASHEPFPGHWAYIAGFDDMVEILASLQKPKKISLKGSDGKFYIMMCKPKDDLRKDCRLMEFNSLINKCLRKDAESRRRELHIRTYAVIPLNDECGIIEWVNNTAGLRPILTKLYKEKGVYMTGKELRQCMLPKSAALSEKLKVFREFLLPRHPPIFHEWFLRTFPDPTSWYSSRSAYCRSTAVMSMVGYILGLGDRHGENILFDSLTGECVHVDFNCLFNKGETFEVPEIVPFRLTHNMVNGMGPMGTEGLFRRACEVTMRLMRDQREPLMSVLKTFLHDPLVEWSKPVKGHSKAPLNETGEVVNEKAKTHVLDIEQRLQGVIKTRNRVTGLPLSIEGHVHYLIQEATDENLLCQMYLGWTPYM

Row | Ki | SMILES
1 | 100 to 1000 nM | Nc1ncc(C2=CCN(C(=O)OCc3ccccc3)CC2)nc1-c1nnc(-c2ccccc2)o1 [Compound I-257, benzyl 4-(5-amino-6-(5-phenyl-1,3,4-oxadiazol-2-yl)pyrazin-2-yl)-5,6-dihydropyridine-1(2H)-carboxylate]
2 | 100 to 1000 nM | Nc1ncc(N2CCN(CC(=O)N3CCOCC3)CC2)nc1-c1nnc(-c2ccccc2)o1 [Compound I-303, 2-[4-[5-amino-6-(5-phenyl-1,3,4-oxadiazol-2-yl)pyrazin-2-yl]piperazin-1-yl]-1-morpholino-ethanone]
3 | 100 to 1000 nM | CCS(=O)(=O)N1CCN(c2cnc(N)c(-c3cn(-c4ccc(N)cc4)nn3)n2)CC1 [Compound I-160, 3-(1-(4-aminophenyl)-1H-1,2,3-triazol-4-yl)-5-(4-(ethylsulfonyl)piperazin-1-yl)pyrazin-2-amine]
4 | < 100 nM | CCS(=O)(=O)N[C@@H]1C2CN(c3cnc(N)c(-c4nnc(-c5ccc(CNC)cc5)o4)n3)C[C@@H]21 (some centres unmarked) [Compound I-369]
5 | 1000 to 10000 nM | CCS(=O)(=O)N1CCN(c2cnc(N)c(C(=O)/C=C/c3ccccc3)n2)CC1 [Compound I-73, (E)-1-(3-amino-6-(4-(ethylsulfonyl)piperazin-1-yl)pyrazin-2-yl)-3-phenylprop-2-en-1-one]
6 | 100 to 1000 nM | Nc1ncc(N2CC[C@H](NS(=O)(=O)c3ccccc3)C2)nc1-c1nc2ccccc2[nH]1 [Compound I-107, (S)-N-(1-(5-amino-6-(1H-benzo[d]imidazol-2-yl)pyrazin-2-yl)pyrrolidin-3-yl)benzenesulfonamide]
7 | 100 to 1000 nM | Nc1ncc(N2CCN(S(=O)(=O)c3c(F)cccc3F)CC2)nc1-c1nnc(-c2ccccc2)o1 [Compound I-202, 5-(4-(2,6-difluorophenylsulfonyl)piperazin-1-yl)-3-(5-phenyl-1,3,4-oxadiazol-2-yl)pyrazin-2-amine]
8 | 100 to 1000 nM | CCS(=O)(=O)N1CCN(c2cnc(N)c(-c3nc4ccc(C)cc4[nH]3)n2)CC1 [Compound I-6, 5-(4-(ethylsulfonyl)piperazin-1-yl)-3-(6-methyl-1H-benzo[d]imidazol-2-yl)pyrazin-2-amine]
9 | 100 to 1000 nM | CCS(=O)(=O)NC1CC[C@H]2CN(c3cnc(N)c(-c4nnc(-c5ccc(CNC)cc5)o4)n3)C[C@@H]12 (stereo partly drawn) [Compound I-354, N-((3aS,6aR)-2-(5-Amino-6-(5-(4-((methylamino)methyl)phenyl)-1,3,4-oxadiazol-2-yl)pyrazin-2-yl)octahydrocyclopenta[c]pyrrol-4-yl)ethanesulfonamide]
10 | 1000 to 10000 nM | COCC(=O)N1CCN(c2cnc(N)c(-c3nc4ccccc4[nH]3)n2)CC1 [Compound I-265, 1-(4-(5-amino-6-(1H-benzo[d]imidazol-2-yl)pyrazin-2-yl)piperazin-1-yl)-2-methoxyethanone]
11 | 100 to 1000 nM | CCS(=O)(=O)N1CCN(c2cnc(N)c(-c3nc4ccccc4n3C)n2)CC1 [Compound I-15, 5-(4-(ethylsulfonyl)piperazin-1-yl)-3-(1-methyl-1H-benzo[d]imidazol-2-yl)pyrazin-2-amine]
12 | 100 to 1000 nM | Nc1ncc(C2=CCN(C(=O)N3CCCCC3)CC2)nc1-c1nc2ccccc2[nH]1 [Compound I-249, (4-(5-amino-6-(1H-benzo[d]imidazol-2-yl)pyrazin-2-yl)-5,6-dihydropyridin-1(2H)-yl)(piperidin-1-yl)methanone]
13 | 1000 to 10000 nM | Cc1ccc2nc(-c3nc(N4CCC(C(N)=O)CC4)cnc3N)[nH]c2c1 [Compound I-14, 1-(5-amino-6-(6-methyl-1H-benzo[d]imidazol-2-yl)pyrazin-2-yl)piperidine-4-carboxamide]
14 | 100 to 1000 nM | Nc1ncc(C2=CCN(C(=O)N3CCCNCC3)CC2)nc1-c1nc2ccccc2[nH]1 [Compound I-279, (4-(5-amino-6-(1H-benzo[d]imidazol-2-yl)pyrazin-2-yl)-5,6-dihydropyridin-1(2H)-yl)(1,4-diazepan-1-yl)methanone]
